Reference: ChEMBL document CHEMBL4616590, “Therapeutic significance of β-glucuronidase activity and its inhibitors: A review” (Eur J Med Chem, 2020)

target: T1, Beta-glucuronidase (Homo sapiens) (UniProt P08236); test: Inhibition of beta-glucuronidase (unknown origin) at 1 uM relative to control; conditions: not given
T1 sequence (whole entry): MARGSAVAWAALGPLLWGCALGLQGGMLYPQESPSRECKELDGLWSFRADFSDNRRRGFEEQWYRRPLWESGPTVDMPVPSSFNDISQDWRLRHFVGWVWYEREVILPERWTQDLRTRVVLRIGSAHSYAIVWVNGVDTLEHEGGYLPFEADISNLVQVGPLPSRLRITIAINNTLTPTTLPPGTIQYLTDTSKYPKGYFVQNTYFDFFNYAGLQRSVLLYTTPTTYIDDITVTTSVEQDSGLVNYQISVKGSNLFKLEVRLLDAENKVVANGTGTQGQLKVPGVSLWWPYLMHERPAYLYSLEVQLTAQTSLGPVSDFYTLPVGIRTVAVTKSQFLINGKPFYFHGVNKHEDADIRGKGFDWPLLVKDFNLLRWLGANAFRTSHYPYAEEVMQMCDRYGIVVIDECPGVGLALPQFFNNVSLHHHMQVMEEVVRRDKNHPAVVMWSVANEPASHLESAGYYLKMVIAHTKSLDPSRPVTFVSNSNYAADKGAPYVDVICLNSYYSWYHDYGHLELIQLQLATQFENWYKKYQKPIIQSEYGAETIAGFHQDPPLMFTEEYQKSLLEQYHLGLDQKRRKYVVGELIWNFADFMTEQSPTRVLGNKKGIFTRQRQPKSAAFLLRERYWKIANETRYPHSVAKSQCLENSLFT

| SMILES | inhibition |
| --- | --- |
| CCOC(=O)[C@@H]1Oc2cc(C)n(Cc3ccccc3)c(=O)c2[C@H]1c1ccc(O)cc1 | > 70% |
| CCOC(=O)[C@@H]1Oc2cc(C)n(Cc3ccc(OC)cc3)c(=O)c2[C@H]1c1cc(OC)c(OC)cc1OC | > 70% |
| CCOC(=O)[C@@H]1Oc2cc(C)n(Cc3ccc(OC)cc3)c(=O)c2[C@H]1c1ccc(C(F)(F)F)cc1 | > 70% |

The next lines start with the values.

| inhibition | SMILES |
| --- | --- |
| > 70% | CCOC(=O)[C@@H]1Oc2cc(C)n(Cc3ccc(OC)cc3)c(=O)c2[C@H]1c1ccc(C(F)(F)F)cc1C(F)(F)F |
| > 70% | CCOC(=O)[C@@H]1Oc2cc(C)n(Cc3ccccc3)c(=O)c2[C@H]1c1ccc([N+](=O)[O-])cc1 |
| > 70% | CCOC(=O)[C@@H]1Oc2cc(C)n(Cc3ccccc3)c(=O)c2[C@H]1c1ccc(OC)cc1 |

target: T1, Beta-glucuronidase (Homo sapiens); test: Potency index, ratio of Silymarin IC50 to test compound IC50 for beta-glucuronidase (unknown origin); conditions: not given

| Ratio IC50 | SMILES |
| --- | --- |
| 50 | O=c1c2cc(O)c(O)cc2oc2cc(O)c([C@@H]3O[C@H](CO)[C@@H](O)[C@H](O)[C@H]3O)c(O)c12 |
| 76 | O=c1c(O)c(-c2ccc(O)cc2)oc2cc(O)cc(O)c12 |

target: not listed separately; test: Inhibition of bovine liver beta-glucuronidase using 4-nitrophenyl beta-D-glucuronopyranoside as substrate preincubated for 30 mins followed by substrate addition measured after 10 to 20 mins by e Lineweaver-Burk plot analysis; parameters: species or system Bos taurus; conditions: not given

| Ki | SMILES |
| --- | --- |
| 12 nM | O=C(O)[C@@H]1[C@@H](O)[C@H](O)[C@@H](O)c2nccn21 |
| 25 nM | O=C(O)[C@@H]1[C@@H](O)[C@H](O)[C@@H](O)c2nnnn21 |

target: T2, Beta-glucuronidase (Rattus norvegicus) (UniProt P06760); test: Inhibition of rat neutrophils beta-glucuronidase at 100 uM relative to control; conditions: not given
T2 sequence (whole entry): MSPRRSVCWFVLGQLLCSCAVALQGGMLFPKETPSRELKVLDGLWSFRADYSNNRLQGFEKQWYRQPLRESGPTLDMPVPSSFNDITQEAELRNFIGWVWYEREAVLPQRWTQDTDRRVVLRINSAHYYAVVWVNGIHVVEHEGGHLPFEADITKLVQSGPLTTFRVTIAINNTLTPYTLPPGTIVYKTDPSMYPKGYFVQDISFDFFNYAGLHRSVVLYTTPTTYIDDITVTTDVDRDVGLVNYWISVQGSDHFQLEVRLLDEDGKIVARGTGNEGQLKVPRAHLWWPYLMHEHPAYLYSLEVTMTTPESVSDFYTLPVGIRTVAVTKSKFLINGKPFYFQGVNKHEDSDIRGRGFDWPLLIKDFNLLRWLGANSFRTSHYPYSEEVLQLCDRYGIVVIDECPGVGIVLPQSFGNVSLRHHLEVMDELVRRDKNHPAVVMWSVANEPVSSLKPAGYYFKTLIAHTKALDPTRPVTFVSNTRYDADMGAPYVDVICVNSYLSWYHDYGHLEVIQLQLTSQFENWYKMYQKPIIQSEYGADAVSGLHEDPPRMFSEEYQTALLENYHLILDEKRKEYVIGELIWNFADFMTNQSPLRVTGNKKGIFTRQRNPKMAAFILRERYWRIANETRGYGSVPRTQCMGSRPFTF

| inhibition | SMILES |
| --- | --- |
| 67.7% | O=c1cc(-c2ccc(O)cc2O)oc2cc(O)cc(O)c12 |
| 65.9% | C=C(C)C(O)CC/C(C)=C/Cc1c(O)cc(O)cc1-c1cc2ccc(O)cc2o1 (stereo not drawn) |

target: Beta-glucuronidase (Escherichia coli (strain K12), UniProt P05804); test: Inhibition of Escherichia coli beta-glucuronidase; conditions: not given
Sequence (P05804 whole entry): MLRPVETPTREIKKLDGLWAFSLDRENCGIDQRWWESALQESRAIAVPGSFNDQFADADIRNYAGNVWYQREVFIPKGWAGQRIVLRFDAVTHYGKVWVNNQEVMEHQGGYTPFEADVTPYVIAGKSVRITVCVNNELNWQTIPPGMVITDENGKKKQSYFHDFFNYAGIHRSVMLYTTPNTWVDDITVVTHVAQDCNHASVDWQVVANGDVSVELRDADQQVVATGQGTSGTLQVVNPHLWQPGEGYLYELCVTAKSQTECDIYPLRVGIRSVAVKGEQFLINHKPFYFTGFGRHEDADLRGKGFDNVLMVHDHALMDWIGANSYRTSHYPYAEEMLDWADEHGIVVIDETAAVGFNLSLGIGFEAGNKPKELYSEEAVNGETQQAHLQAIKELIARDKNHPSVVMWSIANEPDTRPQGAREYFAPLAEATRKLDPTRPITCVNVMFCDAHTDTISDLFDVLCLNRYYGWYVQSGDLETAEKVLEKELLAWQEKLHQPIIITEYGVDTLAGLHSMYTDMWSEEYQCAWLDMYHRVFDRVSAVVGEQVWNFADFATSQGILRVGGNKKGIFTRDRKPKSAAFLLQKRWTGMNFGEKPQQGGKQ

| IC50 | SMILES |
| --- | --- |
| 57 µM | CO[C@@]1(CO)OCCC1=O |

target: not listed separately; test: Inhibition of bovine liver beta-glucuronidase; parameters: species or system Bos taurus; conditions: not given

| SMILES | IC50 |
| --- | --- |
| O=C(O)[C@H]1NC[C@H](O)[C@@H](O)[C@@H]1O | 70 µM |
| O=C(O)[C@@H]1[C@@H](O)[C@H](O)[C@@H](O)c2nccn21 | 12 µM |
| Fc1ccc(-c2nnc(-c3ccc(-c4nc5ccccc5s4)cc3)o2)cc1 | 8.56 µM |
| c1ccc(-c2nnc(-c3ccc(-c4nc5ccccc5s4)cc3)o2)nc1 | 31.2 µM |
| O[C@@H]1[C@@H](O)[C@H](O)[C@@]2(O)CC[C@@H]1N2 | 2.3 µM |
| CCCCCCCCC[C@@H]1NC[C@@H](O)[C@@H](O)[C@H](O)[C@H]1O | 97 µM |
| O=C(O)[C@H]1CN[C@H](N2C(=O)c3ccccc3C2=O)[C@@H](O)[C@H]1O | 0.068 µM |

Now from value to compound:

| IC50 | SMILES |
| --- | --- |
| 0.062 µM | CC(=O)N[C@H]1NC[C@](O)(C(=O)O)[C@H](O)[C@@H]1O |
| 0.065 µM | CC(=O)N[C@H]1NC[C@H](C(=O)O)[C@H](O)[C@@H]1O |
| 32.4 µM | Oc1cccc(-c2nnc(-c3ccc(-c4nc5ccccc5s4)cc3)o2)c1 |
| 1.64 to 15.4 µM | Clc1ccc(-c2nnc(-c3ccc(-c4nc5ccccc5s4)cc3)o2)cc1 |
| 4.38 µM | Oc1ccccc1-c1nnc(-c2ccc(-c3nc4ccccc4s3)cc2)o1 |
| 86 µM | O=C(O)[C@H]1NC[C@H](O)[C@@H](O)[C@H]1O |

target: T1, Beta-glucuronidase (Homo sapiens); test: Inhibition of beta-glucuronidase (unknown origin) relative to control; conditions: concentration not given here

| SMILES | inhibition |
| --- | --- |
| O=C(O)[C@@H](O)[C@H](O)[C@H](O)[C@@H](O)C(=O)O | 99% |
| O=C1CCCCCC/C=C/CCCCCCC1 | 99% |

target: not listed separately; test: Inhibition of bovine liver beta-glucuronidase using 4-nitrophenyl b-D-glucuronopyranoside as substrate after 30 mins; parameters: species or system Bos taurus; conditions: not given

| IC50 | SMILES |
| --- | --- |
| 32 µM | O=C(O)[C@H]1NC(=O)[C@H](O)[C@@H](O)[C@H]1O |
| 6.2 µM | COC(=O)[C@]1(Cc2ccc(O)c(C=O)c2)OC(=O)C(O)=C1c1ccc(O)cc1 |
| 25 µM | O=C(O)[C@@H]1[C@@H](O)[C@H](O)[C@@H](O)c2nnnn21 |
| 31 µM | O=C(O)[C@H]1NC(=O)[C@H](O)[C@@H](O)[C@@H]1O |

| SMILES | IC50 |
| --- | --- |
| C[C@]12C=C/C(=N\O)C=C1CC[C@H]1[C@@H]3[C@@H](O)C[C@](C)(O)[C@@]3(C)CC[C@@H]12 | 49 µM |
